Laboratory results from publication PMC7083837 (Nature Communications, 2020).
Where “and” joins values, the source holds several entries; their conditions need not be identical. Identical values can stand only once. Values belong to the compound of their own block, whether it stands above or below them.

Experiments:
[1] = biological target: T1, SERT WT (Homo sapiens, UniProt P31645); assay: [3H]5-HT uptake in intact COS-7 cells; format: cell-based; settings: read-out: KM (5-HT); SERT WT
T1 construct: expressed in transfected cells; host or cells: COS-7
T1 sequence (P31645 whole entry): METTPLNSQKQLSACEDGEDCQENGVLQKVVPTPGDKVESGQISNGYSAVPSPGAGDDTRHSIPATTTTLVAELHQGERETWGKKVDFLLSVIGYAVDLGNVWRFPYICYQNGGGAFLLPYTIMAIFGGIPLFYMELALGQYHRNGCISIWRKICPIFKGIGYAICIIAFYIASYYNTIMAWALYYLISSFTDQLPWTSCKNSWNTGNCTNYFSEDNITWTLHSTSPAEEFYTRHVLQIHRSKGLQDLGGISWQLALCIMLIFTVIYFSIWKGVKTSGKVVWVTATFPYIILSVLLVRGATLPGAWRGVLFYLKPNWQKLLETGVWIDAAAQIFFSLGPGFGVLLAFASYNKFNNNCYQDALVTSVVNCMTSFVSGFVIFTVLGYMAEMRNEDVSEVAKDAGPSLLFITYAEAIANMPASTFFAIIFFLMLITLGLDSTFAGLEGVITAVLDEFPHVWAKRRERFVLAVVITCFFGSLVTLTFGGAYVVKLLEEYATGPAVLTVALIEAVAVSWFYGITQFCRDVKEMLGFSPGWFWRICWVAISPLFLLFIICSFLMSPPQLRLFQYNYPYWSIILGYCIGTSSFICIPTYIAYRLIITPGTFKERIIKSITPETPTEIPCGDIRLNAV

[2] = biological target: T1, SERT WT; assay: [3H]S-CIT competition (equilibrium) binding on COS-7 membranes; settings: COS-7 membranes, SERT WT; read-out: Inhibition of [^3H]S-CIT binding (IC50);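 note: transiently transfected cell membranes incubated 1 h at room temperature with 5–10 nM [3H]S-CIT, nonspecific binding defined using 5 µM paroxetine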
[3] = biological target: T1, SERT WT; assay: [3H]IMI dissociation rate assay (allosteric potency); format: binding; settings: SERT WT; for IC50: read-out: Allosteric potency inhibition of [^3H]IMI dissociation (IC50);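 for all read-outs here: membranes of COS-7 cells transiently expressing hSERT, dissociation of prebound radioligand tracked by filtration over seven time points (5–70 min), rate constant with test ligand expressed relative to buffer-only rate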
[4] = biological target: T1, SERT WT; assay: [3H]S-CIT dissociation rate assay (allosteric potency); format: binding; settings: for IC50: read-out: Allosteric potency inhibition of [^3H]S-CIT dissociation (IC50)
[5] = test system: extracellular 5-HT levels in rat hippocampus; assay: Microdialysis in ventral hippocampus of freely moving rats; format: in vivo; set-up: extracellular 5-HT level / AUC: unit not given here; settings: single animals;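 for extracellular 5-HT level: percent of mean basal level in three fractions before perfusion start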
[6] = log conc -5.4318, listed as AE56461
[7] = log conc -5.9101, listed as AE56461
[8] = log conc -5.9101, listed as AF60098

SMILES: NCCc1c[nH]c2ccc(O)cc12 [5-HT, Serotonin, reference compound]
Km [1]: 0.52 µM

IC50 [2]: 1040 nM
IC50 [3]: 119 nM and 120 nM
[^3H]S-CIT dissociation relative to control (source data Fig 3B) ([4]; log conc -4, listed as AE56461): 0.304 and 0.27 and 0.327
[^3H]S-CIT dissociation relative to control (source data Fig 3B) ([4]; log conc -4.47756, listed as AE56461): 0.466 and 0.496 and 0.522
[^3H]S-CIT dissociation relative to control (source data Fig 3B) ([4]; log conc -4.95468, listed as AE56461): 0.654 and 0.732 and 0.716
[^3H]S-CIT dissociation relative to control (source data Fig 3B) [4, 6]: 0.892 and 0.93 and 0.888
[^3H]S-CIT dissociation relative to control (source data Fig 3B) [4, 7]: 0.912 and 1.007 and 0.973
[^3H]S-CIT dissociation relative to control (source data Fig 3B) ([4]; log conc -6.38561, listed as AE56461): 0.927 and 1.032 and 0.97
[^3H]S-CIT dissociation relative to control (source data Fig 3B) ([4]; log conc -6.86273, listed as AE56461): 0.952 and 1.031 and 0.987
IC50 [4]: 33800 nM
SMILES: NC(=O)c1ccc2c(c1)CO[C@@]2(CCCN1CCC(c2ccc3c(c2)NC(=O)CC3)CC1)c1ccc(F)cc1 [AE, (S)-1-(4-fluorophenyl)-1-(3-(4-(2-oxo-1,2,3,4-tetrahydroquinolin-7-yl)piperidin-1-yl)propyl)-1,3-dihydroisobenzofuran-5-carboxamide]
[^3H]IMI dissociation relative to control (source data Fig 3C) ([3]; log conc -4.4776, listed as AE56461): 0.06439 and 0.064 and 0.0867 and 0.04446 and 0.04701
[^3H]IMI dissociation relative to control (source data Fig 3C) [3, 6]: 0.0763 and 0.076 and 0.0996 and 0.0916 and 0.07313
[^3H]IMI dissociation relative to control (source data Fig 3C) [3, 7]: 0.1205 and 0.121 and 0.184 and 0.1786 and 0.1244
[^3H]IMI dissociation relative to control (source data Fig 3C) ([3]; log conc -6.3856, listed as AE56461): 0.2609 and 0.261 and 0.334 and 0.3145 and 0.2627
[^3H]IMI dissociation relative to control (source data Fig 3C) ([3]; log conc -6.8627, listed as AE56461): 0.4485 and 0.449 and 0.476 and 0.4376 and 0.458
[^3H]IMI dissociation relative to control (source data Fig 3C) ([3]; log conc -7.3398, listed as AE56461): 0.6779 and 0.678 and 0.684 and 0.679 and 0.715
[^3H]IMI dissociation relative to control (source data Fig 3C) ([3]; log conc -7.817, listed as AE56461): 0.9119 and 0.9318 and 0.9209 and 0.831 and 0.9158
[^3H]IMI dissociation relative to control (source data Fig 3C) ([3]; log conc -8.2941, listed as AE56461): 1.0028 and 1.006 and 0.9639 and 1.0302 and 1.0089
[^3H]IMI dissociation relative to control (source data Fig 3C) ([3]; log conc -8.7712, listed as AE56461): 0.9594 and 0.977 and 0.9693 and 1.1187 and 1.1091

IC50 [2]: 79 nM
IC50 [3]: 192 nM and 190 nM
IC50 [4]: 10400 nM
SMILES: NC(=O)c1ccc2c(c1)CO[C@@]2(CCCN1CC=C(c2ccc3ccc(=O)[nH]c3c2)CC1)c1ccc(F)cc1 [AF, (S)-1-(4-fluorophenyl)-1-(3-(4-(2-oxo-1,2-dihydroquinolin-7-yl)-3,6-dihydropyridin-1(2H)-yl)propyl)-1,3-dihydroisobenzofuran-5-carboxamide]
[^3H]IMI dissociation relative to control (source data Fig 3C) [3, 8]: 0.2397 and 0.2132 and 0.1806 and 0.1901 and 0.1781
[^3H]IMI dissociation relative to control (source data Fig 3C) ([3]; log conc -6.3856, listed as AF60098): 0.6028 and 0.4774 and 0.425 and 0.3481 and 0.3211
[^3H]IMI dissociation relative to control (source data Fig 3C) ([3]; log conc -6.8627, listed as AF60098): 0.7993 and 0.6981 and 0.6134 and 0.5939 and 0.5386
[^3H]IMI dissociation relative to control (source data Fig 3C) ([3]; log conc -7.3398, listed as AF60098): 0.7825 and 0.9163 and 0.612 and 0.781 and 0.6966
[^3H]IMI dissociation relative to control (source data Fig 3C) ([3]; log conc -7.817, listed as AF60098): 0.8219 and 0.9518 and 0.9715 and 0.9341 and 0.8939
[^3H]S-CIT dissociation relative to control (source data Fig 3B) ([4]; log conc -4, listed as AF60098): 0.1701 and 0.2211 and 0.1573 and 0.2182 and 0.2661
[^3H]S-CIT dissociation relative to control (source data Fig 3B) ([4]; log conc -4.47756, listed as AF60098): 0.2756 and 0.2914 and 0.2326 and 0.2923 and 0.3084
[^3H]S-CIT dissociation relative to control (source data Fig 3B) ([4]; log conc -4.95468, listed as AF60098): 0.3758 and 0.4105 and 0.4138 and 0.4162 and 0.3863
[^3H]S-CIT dissociation relative to control (source data Fig 3B) ([4]; log conc -5.4318, listed as AF60098): 0.7059 and 0.6013 and 0.6811 and 0.5633 and 0.7156
[^3H]S-CIT dissociation relative to control (source data Fig 3B) [4, 8]: 0.8853 and 0.874 and 0.8934 and 0.8911 and 0.9427
[^3H]S-CIT dissociation relative to control (source data Fig 3B) ([4]; log conc -6.38561, listed as AF60098): 0.9692 and 0.7987 and 0.9599 and 0.9034 and 0.9936
[^3H]S-CIT dissociation relative to control (source data Fig 3B) ([4]; log conc -6.86273, listed as AF60098): 0.955 and 0.9328 and 0.9433 and 0.9567 and 0.9549

SMILES: CN(C)CCCN1c2ccccc2CCc2ccccc21 [imipramine, reference compound]
AUC ([5]; Fig 6B Inset): 84 and 92 and 130 and 62 and 48 and 46 and 143 and 182 and 163 and 129 and 74 and 127 and 73
extracellular 5-HT level ([5]; Fig 6B, Time -40): 77.25 and 153.32 and 98.52 and 112.22 and 48.77 and 123.66 and 115.15 and 92.18 and 91.72 and 110.66 and 146.17
